Key:
Nitric oxide synthase 3 = molecular target: T1, Nitric oxide synthase 3 (Homo sapiens, UniProt P29474); assay: (§1) Enzyme Assay: Primary stock solutions of test compounds at a concentration of 6 mM were prepared from the 2 to 5 mg powder. The primary stock solutions of each test compound were prepared freshly in distilled water on the day of study to obtain a final concentration of 6 mM. For determination of IC50 values, 12 test compound concent rations were prepared as 3-fold serial dilutions. Concentration range of test compound utilized for nNOS were 0.001 to 300 μM and for eNOS were 0.003 to 10 00 μM. The vehicle of the test compound or inhibitor was used as blank control. For non-specific activity, 100 μM L-NMMA was used. Runs using the IC50 concentration of L-NAME were done in parallel as controls. All incubations are performed in duplicate.
T1 sequence (P29474 whole entry): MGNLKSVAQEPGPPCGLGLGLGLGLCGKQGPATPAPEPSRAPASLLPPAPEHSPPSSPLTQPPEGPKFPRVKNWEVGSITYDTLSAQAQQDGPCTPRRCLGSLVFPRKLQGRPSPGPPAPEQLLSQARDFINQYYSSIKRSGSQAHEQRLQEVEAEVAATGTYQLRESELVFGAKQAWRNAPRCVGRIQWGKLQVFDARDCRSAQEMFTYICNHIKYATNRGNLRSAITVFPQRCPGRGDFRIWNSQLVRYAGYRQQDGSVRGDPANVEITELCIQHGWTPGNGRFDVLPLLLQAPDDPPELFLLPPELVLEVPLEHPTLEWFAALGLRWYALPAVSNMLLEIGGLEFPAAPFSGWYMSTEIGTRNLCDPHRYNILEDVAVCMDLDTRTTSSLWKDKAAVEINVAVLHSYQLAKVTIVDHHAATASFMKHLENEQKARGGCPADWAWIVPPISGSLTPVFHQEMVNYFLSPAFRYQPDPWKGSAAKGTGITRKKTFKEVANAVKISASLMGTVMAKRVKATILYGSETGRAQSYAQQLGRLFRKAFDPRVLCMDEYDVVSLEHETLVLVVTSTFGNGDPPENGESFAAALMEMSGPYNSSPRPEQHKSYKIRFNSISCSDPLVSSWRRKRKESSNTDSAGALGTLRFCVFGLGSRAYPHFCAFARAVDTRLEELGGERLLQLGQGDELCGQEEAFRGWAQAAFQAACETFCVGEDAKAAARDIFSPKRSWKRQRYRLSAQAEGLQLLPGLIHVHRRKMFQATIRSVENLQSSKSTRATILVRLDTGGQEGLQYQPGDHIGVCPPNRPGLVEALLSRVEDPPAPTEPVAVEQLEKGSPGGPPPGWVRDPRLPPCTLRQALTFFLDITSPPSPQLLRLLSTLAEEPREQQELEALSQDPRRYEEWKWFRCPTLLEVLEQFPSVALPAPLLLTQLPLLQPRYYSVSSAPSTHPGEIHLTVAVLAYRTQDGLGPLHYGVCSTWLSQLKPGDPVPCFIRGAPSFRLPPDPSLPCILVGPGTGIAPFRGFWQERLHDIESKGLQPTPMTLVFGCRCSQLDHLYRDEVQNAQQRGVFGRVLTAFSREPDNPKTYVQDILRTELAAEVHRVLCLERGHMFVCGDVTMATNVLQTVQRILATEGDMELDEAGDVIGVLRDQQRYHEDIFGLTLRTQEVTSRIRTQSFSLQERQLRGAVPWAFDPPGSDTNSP

Nitric oxide synthase 1 = Nitric oxide synthase 1 (Homo sapiens, UniProt P29475); assay: as §1
[1] = molecular target: Nitric oxide synthase, inducible (Homo sapiens, UniProt P35228); assay: Enzyme Assay: Recombinant human inducible NOS (iNOS) was produced in Baculovirus-infected Sf9 cells (ALEXIS). In a radiometric method, NO synthase activity was determined by measuring the conversion of [3H]L-arginine to [3H]L-citrulline. To measure iNOS, 10 uL of enzyme was added to 100 uL of 100 mM HEPES, pH=7.4, containing 1 mM CaCl2, 1 mM EDTA, 1 mM dithiothreitol, 1 uM FMN, 1 uM FAD, 10 uM tetrahydrobiopterin, 120 uM NADPH, and 100 nM CaM. To measure enzyme inhibition, a 15 uL solution of a test substance was added to the enzyme assay solution, followed by a pre-incubation time of 15 min at RT. The reaction was initiated by addition of 20 uL L-arginine containing 0.25 uCi of [3H] arginine/mL and 24 uM L-arginine. The total volume of the reaction mixture was 150 uL in every well.
Sequence of Nitric oxide synthase, inducible (P35228 whole entry): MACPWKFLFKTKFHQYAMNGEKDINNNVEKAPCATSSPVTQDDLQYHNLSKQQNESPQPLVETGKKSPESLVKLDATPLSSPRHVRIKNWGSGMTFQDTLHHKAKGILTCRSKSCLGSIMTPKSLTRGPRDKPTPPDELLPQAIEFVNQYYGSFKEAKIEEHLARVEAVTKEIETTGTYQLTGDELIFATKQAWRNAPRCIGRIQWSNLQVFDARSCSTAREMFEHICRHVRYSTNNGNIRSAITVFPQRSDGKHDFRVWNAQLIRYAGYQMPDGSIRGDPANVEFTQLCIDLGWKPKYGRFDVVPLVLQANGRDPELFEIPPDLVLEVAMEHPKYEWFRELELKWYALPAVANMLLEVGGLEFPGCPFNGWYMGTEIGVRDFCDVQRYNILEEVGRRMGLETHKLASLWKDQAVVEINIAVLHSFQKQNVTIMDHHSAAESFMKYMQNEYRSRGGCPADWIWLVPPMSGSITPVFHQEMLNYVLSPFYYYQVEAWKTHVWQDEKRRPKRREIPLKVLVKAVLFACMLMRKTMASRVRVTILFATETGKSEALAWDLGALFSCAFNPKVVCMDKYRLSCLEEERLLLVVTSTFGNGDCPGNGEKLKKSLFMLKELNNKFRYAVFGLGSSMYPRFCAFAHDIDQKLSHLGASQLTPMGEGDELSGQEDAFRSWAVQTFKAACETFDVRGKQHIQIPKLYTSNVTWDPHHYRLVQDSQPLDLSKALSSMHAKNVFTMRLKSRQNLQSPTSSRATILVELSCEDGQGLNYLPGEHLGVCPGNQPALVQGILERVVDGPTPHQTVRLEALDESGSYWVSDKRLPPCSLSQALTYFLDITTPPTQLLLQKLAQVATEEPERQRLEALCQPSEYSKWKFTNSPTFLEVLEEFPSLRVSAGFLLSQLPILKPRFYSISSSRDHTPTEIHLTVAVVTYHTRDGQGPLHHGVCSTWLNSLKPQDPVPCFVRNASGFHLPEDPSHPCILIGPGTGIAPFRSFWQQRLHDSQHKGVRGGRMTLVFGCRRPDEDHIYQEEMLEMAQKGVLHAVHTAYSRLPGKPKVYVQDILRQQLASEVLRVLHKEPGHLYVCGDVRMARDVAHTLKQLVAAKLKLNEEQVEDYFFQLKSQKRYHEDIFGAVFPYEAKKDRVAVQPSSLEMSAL

Sequence of Nitric oxide synthase 1 (P29475 whole entry): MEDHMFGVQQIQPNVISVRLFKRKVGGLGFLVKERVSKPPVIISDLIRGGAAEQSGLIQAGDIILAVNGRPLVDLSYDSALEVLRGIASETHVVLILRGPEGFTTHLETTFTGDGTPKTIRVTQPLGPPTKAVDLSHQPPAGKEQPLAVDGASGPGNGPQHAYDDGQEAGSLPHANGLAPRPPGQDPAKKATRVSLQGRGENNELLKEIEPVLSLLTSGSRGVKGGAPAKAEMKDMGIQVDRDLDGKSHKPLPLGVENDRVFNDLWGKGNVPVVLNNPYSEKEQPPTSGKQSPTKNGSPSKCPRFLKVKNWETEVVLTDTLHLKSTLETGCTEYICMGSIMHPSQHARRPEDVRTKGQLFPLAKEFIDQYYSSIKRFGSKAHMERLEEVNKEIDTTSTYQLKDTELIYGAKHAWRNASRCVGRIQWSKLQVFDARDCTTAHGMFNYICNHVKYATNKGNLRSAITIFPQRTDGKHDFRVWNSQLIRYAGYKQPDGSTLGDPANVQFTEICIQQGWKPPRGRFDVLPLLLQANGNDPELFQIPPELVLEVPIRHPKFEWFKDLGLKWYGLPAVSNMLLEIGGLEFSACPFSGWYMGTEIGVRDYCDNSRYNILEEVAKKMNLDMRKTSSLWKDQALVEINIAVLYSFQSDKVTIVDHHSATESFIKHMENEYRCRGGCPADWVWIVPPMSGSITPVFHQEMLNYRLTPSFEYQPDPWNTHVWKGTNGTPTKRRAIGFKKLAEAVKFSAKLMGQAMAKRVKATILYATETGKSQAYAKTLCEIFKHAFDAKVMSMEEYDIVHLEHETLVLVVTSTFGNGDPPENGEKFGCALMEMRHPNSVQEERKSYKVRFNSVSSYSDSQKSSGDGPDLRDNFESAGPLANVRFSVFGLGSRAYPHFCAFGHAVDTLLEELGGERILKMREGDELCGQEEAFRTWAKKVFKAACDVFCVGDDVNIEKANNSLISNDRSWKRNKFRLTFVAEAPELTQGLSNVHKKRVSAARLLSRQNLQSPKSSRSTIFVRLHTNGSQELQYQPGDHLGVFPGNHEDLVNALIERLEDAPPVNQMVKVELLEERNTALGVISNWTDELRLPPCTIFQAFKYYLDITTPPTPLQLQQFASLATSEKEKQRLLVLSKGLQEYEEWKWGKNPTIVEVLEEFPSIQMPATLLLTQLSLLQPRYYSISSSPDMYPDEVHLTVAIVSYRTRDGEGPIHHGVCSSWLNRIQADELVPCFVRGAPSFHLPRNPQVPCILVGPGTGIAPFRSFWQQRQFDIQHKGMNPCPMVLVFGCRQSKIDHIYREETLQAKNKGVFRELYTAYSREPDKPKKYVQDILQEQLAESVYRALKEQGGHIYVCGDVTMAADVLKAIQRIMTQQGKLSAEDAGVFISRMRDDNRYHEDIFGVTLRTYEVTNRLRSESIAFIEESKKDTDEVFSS

SMILES	IC50 (Nitric oxide synthase 3) [µM]	IC50 (Nitric oxide synthase 1) [µM]	IC50 [1] [µM]
CN1CCCC1CCN1C(=O)COc2cc(NC(=N)c3cccs3)ccc21 (stereo not given)	87.2	2.08	> 100
CN1CCCC1CCN1CCOc2cc(/N=C(\N)c3cccs3)ccc21 (stereo not given)		0.43	10.6

From ChEMBL document CHEMBL3638788, “Benzoxazines, benzothiazines, and related compounds having NOS inhibitory activity” (2013)
